Experimental data taken from ChEMBL document CHEMBL1201862, “PubChem BioAssay data set” (2004).
Calls of active or inactive are those of the source.

Assays:
Cannabinoid receptor 1 = Cannabinoid receptor 1 (Homo sapiens, UniProt P21554); assay: SAR analysis of antagonists of the Cannabinoid Receptor 1 using an Image-Based Assay. [Related pubchem assays (depositor defined):AID1961, AID1965]; type: functional
[1] = target: Dual specificity protein phosphatase 3 (Homo sapiens, UniProt P51452); assay: SAR VHR1 Fluorescent Assay for In Vitro dose response studies Set 2. [Related pubchem assays (depositor defined):AID1654, AID1661, AID1878]; type: functional
[2] = target: T1, G-protein coupled receptor 55 (Homo sapiens, UniProt Q9Y2T6); assay: selective activators of receptor GPR55 – imaging, U2OS cells, beta-arrestin-GFP redistribution, primary screen (AID 1961); type: functional
[3] = target: T2, Tyrosine-protein phosphatase non-receptor type 7 (Homo sapiens, UniProt P35236); assay: SAR analysis of chemical inhibitors of HePTP using a Fluorescent assay - Set 2. [Related pubchem assays (depositor defined):AID1059, AID1077, AID1661, AID2085, AID521]; type: functional
T2 sequence (P35236 whole entry): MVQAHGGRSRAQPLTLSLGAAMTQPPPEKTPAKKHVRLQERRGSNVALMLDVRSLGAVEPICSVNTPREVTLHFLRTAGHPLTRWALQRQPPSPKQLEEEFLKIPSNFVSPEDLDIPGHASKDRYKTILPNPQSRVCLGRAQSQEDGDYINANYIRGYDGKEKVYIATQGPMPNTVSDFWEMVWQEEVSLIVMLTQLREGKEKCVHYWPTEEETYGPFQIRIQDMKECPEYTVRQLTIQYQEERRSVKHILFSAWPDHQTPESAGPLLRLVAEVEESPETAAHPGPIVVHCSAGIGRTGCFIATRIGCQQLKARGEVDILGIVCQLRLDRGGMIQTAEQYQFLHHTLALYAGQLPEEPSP

Cannabinoid receptor 2 [4] = target: T3, Cannabinoid receptor 2 (Homo sapiens, UniProt P34972); assay: SAR analysis of agonists of the Cannabinoid Receptor 2 using an Image-Based Assay - Set 2. [Related pubchem assays (depositor defined):AID1961, AID1965]; type: functional
Cannabinoid receptor 2 [5] = target: T3, Cannabinoid receptor 2; assay: SAR analysis of antagonists of the Cannabinoid Receptor 2 using an Image-Based Assay - Set 2. [Related pubchem assays (depositor defined):AID1961, AID1965]; type: functional
[6] = target: T1, G-protein coupled receptor 55; assay: SAR analysis of selective Agonists of GPR55 using an Image-Based Assay. [Related pubchem assays (depositor defined):AID1961, AID1965]; type: functional
[7] = target: Sphingosine 1-phosphate receptor 2 (Homo sapiens, UniProt O95136); assay: Dose Response Cell Based Assay for Agonists of the S1P2 Receptor. [Related pubchem assays: 729, 736, 843 ]; type: functional
[8] = target: T4, Short transient receptor potential channel 4 (Mus musculus, UniProt Q9QUQ5); assay: calcium entry via TRPC4 opening agents – cell-based, HEK293 TRPC4/mu-opioid, Fluo-4 calcium, dose response (AID 434937); type: functional
T4 sequence (Q9QUQ5 whole entry): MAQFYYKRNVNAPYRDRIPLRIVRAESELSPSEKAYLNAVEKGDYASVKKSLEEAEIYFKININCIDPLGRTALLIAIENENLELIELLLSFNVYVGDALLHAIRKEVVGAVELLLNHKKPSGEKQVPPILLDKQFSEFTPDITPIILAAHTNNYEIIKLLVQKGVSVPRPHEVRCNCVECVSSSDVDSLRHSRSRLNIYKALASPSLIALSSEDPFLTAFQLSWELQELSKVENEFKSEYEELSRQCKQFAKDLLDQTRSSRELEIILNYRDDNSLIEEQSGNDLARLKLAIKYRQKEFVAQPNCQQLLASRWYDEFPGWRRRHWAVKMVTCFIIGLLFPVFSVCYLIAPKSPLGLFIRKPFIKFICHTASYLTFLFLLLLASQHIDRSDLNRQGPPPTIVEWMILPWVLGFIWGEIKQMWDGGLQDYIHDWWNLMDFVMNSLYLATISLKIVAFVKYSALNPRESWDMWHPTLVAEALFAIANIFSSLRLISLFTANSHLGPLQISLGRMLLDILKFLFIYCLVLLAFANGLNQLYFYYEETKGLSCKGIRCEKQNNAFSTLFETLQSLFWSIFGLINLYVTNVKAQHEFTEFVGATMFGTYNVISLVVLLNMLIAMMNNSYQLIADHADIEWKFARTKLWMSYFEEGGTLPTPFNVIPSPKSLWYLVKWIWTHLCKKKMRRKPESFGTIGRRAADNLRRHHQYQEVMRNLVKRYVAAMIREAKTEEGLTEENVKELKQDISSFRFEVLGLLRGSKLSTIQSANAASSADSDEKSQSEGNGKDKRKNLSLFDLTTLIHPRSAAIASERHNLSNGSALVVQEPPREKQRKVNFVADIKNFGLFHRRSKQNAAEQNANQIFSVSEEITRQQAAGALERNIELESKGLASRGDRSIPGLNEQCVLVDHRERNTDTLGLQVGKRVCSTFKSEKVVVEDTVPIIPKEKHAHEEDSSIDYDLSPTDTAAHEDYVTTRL

[9] = viability loss of HPDE-C7K cells – cell-based, fluorescence, HTS, primary screen (AID 431); type: functional; conditions: Homo sapiens
[10] = target: Sphingosine 1-phosphate receptor 4 (Homo sapiens, UniProt O95977); assay: Fluorescence dose response cell-based high throughput screening assay for agonists of the Sphingosine 1-Phosphate Receptor 4 (S1P4). [Related pubchem assays: 1509 (Primary screen.), 1523 (Confirmation screen in triplicates.)]; type: functional
[11] = target: Sphingosine 1-phosphate receptor 1 (Homo sapiens, UniProt P21453); assay: Fluorescence-based counterscreen assay for S1P4 agonists: Cell-based dose response high throughput screening assay to identify agonists of the Sphingosine 1-Phosphate Receptor 1 (S1P1). [Related pubchem assays (depositor defined):AID1509, AID1523, AID1801, AID463107, AID463118, AID463119, AID463122, AID463123, AID463129, AID463225, AID504400, AID504460]; type: functional
[12] = HPDE-C7 pancreatic duct cell viability loss – fluorescence, HTS (AID 430); type: functional, cell-based; conditions: Homo sapiens
[13] = target: Lysine-specific demethylase 4A (Homo sapiens, UniProt O75164); assay: inhibition of JMJD2A H3K9me3 demethylation – biochemical, DELFIA europium, cherry-picked samples, selectivity assay for GASC-1 inhibitor project, dose response (AID 488840)
Mu-type opioid receptor = Mu-type opioid receptor (Homo sapiens, UniProt P35372); assay: SAR Analysis of Agonists of the MOR Receptor using an Image-Based Assay - Set 3. [Related pubchem assays (depositor defined):AID1777, AID1785, AID1786, AID1966, AID2133, AID2136, AID2284, AID2285, AID2352]; type: functional
[14] = target: Delta-type opioid receptor (Homo sapiens, UniProt P41143); assay: SAR Analysis of Agonists of the DOR Receptor using an Image-Based Assay - Set 3. [Related pubchem assays (depositor defined):AID1777, AID1786]; type: functional
[15] = target: T5, Kappa-type opioid receptor (Homo sapiens, UniProt P41145); assay: SAR analysis of small molecule agonists of the kappa opioid receptor via a luminescent beta-arrestin assay - Set 3. [Related pubchem assays (depositor defined):AID1777, AID1785, AID1786, AID1966, AID2133, AID2136, AID2284, AID2500]; type: functional
[16] = target: T5, Kappa-type opioid receptor; assay: kappa opioid receptor activation by imaging – image-based, set 3, SAR follow-up (AID 488833); type: functional
[17] = target: Intestinal-type alkaline phosphatase (Homo sapiens, UniProt P09923); assay: inhibition of human intestinal alkaline phosphatase – biochemical, dose response (AID 488876); type: functional
[18] = target: Intestinal-type alkaline phosphatase (Mus musculus, UniProt P24822); assay: PubChem AID 488785; type: functional
Hexokinase HKDC1 = target: T6, Hexokinase HKDC1 (Homo sapiens, UniProt Q2TB90); assay: inhibition of HKDC1 glucose phosphorylation – biochemical, W721R variant, dose response (AID 504729); type: functional
T6 sequence (Q2TB90 whole entry): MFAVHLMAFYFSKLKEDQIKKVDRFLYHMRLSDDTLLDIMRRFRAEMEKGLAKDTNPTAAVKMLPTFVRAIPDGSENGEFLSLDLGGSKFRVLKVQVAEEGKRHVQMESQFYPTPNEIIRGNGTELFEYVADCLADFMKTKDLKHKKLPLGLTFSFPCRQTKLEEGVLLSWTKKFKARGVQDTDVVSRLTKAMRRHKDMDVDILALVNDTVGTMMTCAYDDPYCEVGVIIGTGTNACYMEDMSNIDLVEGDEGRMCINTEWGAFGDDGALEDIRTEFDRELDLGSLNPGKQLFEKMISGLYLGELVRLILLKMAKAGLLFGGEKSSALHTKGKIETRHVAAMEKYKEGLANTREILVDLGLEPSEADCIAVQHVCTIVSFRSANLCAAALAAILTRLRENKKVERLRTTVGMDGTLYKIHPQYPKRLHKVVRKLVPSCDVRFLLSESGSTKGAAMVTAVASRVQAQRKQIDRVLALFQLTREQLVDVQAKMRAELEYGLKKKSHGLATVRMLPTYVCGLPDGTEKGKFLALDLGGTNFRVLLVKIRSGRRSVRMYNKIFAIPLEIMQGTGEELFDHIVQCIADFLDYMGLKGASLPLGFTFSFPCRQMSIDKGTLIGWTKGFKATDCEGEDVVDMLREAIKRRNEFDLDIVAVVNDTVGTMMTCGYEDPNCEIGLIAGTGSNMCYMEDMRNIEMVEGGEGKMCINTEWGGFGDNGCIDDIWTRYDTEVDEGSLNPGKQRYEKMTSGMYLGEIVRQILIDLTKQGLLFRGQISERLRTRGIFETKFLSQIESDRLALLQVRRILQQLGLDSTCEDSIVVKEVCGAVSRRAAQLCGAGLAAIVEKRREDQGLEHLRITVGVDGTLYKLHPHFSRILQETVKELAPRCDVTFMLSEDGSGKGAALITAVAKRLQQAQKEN

[19] = target: T7, Alkaline phosphatase, tissue-nonspecific isozyme (Homo sapiens, UniProt P05186); assay: TNAP enzyme inhibition by screening hits, dose response, selectivity assay for mouse IAP inhibitor project, biochemical, human TNAP, uHTS hits (AID 488906); type: functional
T7 sequence (P05186 whole entry): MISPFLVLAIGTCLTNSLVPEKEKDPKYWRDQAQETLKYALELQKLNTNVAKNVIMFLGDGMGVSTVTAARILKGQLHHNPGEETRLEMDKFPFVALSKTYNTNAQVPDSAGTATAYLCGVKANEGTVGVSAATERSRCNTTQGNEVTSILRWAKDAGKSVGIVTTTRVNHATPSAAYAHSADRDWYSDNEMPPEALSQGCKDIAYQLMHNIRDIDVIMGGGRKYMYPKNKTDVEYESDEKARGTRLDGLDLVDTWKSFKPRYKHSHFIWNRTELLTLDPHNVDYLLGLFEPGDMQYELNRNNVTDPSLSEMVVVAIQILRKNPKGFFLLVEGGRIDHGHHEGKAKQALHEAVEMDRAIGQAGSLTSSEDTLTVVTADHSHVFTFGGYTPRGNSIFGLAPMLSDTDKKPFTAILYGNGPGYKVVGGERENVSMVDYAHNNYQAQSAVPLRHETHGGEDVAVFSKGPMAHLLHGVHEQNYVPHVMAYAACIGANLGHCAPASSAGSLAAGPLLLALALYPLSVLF

T1 sequence (Q9Y2T6 whole entry): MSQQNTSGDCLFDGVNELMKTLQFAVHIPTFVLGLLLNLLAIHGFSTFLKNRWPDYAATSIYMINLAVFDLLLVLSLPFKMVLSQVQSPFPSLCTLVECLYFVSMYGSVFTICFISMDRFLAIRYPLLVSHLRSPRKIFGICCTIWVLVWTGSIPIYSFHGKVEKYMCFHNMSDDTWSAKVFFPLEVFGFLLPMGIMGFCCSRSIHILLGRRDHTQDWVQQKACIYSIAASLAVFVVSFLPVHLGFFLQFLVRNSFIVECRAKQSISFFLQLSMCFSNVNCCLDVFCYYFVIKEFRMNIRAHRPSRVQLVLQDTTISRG
T5 sequence (P41145 whole entry): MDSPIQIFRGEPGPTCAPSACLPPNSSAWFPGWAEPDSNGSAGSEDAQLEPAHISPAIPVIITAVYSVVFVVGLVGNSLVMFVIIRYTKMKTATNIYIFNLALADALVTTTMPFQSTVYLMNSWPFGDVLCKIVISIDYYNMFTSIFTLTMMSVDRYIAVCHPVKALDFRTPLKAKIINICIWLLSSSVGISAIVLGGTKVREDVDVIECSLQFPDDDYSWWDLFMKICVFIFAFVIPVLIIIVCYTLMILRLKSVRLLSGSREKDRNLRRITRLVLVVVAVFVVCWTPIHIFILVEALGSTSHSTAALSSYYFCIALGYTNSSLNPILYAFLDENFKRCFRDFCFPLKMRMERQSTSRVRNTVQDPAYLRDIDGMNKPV
T3 sequence (P34972 whole entry): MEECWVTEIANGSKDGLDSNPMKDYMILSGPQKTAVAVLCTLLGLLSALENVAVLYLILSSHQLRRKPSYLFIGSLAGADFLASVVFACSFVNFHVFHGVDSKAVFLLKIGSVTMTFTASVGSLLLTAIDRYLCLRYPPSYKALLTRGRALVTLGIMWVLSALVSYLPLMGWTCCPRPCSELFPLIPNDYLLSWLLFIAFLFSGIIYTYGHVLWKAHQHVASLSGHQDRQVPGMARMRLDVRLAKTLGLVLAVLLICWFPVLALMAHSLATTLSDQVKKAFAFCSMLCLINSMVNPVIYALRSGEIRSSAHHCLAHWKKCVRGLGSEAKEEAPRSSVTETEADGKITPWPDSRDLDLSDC
Sequence of Delta-type opioid receptor (P41143 whole entry): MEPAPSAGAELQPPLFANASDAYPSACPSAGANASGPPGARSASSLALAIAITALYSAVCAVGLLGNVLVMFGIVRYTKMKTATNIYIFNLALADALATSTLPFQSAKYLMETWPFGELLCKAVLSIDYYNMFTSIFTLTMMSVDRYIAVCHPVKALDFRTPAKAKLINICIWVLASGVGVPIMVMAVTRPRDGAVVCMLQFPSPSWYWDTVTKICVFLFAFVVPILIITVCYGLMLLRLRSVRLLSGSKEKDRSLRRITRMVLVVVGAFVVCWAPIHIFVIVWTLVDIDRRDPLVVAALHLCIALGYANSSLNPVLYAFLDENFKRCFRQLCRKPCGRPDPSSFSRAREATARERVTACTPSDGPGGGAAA
Sequence of Sphingosine 1-phosphate receptor 4 (O95977 whole entry): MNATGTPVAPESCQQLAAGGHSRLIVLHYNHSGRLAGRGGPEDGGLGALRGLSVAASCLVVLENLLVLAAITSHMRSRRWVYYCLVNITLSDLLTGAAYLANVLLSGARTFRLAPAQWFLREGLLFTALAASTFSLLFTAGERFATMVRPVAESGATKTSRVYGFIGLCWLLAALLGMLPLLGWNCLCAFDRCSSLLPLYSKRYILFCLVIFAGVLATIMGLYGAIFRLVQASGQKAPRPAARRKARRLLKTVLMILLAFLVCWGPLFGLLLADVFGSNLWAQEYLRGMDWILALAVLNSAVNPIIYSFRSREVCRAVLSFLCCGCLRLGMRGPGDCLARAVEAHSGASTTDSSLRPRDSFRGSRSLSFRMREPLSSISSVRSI
Sequence of Sphingosine 1-phosphate receptor 1 (P21453 whole entry): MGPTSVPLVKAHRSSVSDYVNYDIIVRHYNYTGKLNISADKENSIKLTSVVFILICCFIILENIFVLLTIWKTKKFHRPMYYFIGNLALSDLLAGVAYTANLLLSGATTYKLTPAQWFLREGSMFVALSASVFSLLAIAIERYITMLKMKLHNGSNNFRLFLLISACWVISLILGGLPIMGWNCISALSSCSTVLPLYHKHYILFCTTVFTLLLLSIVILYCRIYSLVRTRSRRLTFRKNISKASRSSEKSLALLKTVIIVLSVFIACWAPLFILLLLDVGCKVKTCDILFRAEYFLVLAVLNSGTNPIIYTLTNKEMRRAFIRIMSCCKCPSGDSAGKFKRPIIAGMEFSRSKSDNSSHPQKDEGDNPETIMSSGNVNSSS
Sequence of Dual specificity protein phosphatase 3 (P51452 whole entry): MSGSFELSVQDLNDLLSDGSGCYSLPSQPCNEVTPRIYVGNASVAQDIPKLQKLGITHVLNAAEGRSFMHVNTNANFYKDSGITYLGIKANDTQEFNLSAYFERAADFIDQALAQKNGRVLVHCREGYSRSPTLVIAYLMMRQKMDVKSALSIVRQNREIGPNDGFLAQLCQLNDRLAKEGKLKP
Sequence of Lysine-specific demethylase 4A (O75164 whole entry): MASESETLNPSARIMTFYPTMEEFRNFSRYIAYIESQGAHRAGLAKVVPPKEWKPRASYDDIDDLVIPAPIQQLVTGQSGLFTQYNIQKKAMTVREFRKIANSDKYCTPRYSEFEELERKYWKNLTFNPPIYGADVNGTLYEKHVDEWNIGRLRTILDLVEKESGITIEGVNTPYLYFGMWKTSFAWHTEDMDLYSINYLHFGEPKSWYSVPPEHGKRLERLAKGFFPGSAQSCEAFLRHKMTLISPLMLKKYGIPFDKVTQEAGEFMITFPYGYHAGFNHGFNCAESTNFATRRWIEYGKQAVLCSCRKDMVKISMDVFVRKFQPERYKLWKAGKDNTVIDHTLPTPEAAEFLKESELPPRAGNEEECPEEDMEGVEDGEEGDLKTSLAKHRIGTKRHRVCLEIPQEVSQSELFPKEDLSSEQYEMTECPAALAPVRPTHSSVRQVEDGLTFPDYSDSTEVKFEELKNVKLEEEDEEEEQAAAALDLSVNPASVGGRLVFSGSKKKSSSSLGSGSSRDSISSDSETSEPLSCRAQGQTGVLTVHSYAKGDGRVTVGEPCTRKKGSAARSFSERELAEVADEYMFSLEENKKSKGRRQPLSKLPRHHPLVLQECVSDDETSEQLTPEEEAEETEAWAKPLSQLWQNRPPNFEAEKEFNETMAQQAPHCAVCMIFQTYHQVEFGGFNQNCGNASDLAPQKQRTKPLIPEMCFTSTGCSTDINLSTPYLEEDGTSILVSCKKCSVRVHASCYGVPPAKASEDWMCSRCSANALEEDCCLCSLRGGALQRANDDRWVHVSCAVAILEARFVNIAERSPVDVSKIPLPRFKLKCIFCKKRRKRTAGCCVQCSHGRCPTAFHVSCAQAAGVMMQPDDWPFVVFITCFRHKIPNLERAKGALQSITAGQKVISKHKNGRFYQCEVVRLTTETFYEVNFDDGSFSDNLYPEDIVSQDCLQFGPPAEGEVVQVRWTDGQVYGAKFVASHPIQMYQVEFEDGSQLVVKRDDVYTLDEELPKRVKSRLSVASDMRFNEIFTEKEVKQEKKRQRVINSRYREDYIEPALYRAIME
Sequence of Intestinal-type alkaline phosphatase (Homo sapiens, UniProt P09923) (P09923 whole entry): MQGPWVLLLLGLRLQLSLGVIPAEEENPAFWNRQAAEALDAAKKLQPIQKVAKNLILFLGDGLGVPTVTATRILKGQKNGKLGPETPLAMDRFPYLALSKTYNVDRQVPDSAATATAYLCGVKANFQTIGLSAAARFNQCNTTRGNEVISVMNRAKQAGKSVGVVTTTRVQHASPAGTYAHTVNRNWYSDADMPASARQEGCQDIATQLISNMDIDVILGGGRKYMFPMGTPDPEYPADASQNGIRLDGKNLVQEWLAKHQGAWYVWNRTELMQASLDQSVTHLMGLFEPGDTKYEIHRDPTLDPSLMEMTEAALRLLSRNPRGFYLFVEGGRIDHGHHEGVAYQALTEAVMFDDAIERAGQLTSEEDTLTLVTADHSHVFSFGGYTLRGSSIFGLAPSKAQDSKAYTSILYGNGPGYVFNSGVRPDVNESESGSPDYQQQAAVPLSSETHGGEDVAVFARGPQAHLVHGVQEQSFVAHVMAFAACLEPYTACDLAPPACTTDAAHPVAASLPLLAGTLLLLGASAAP
Sequence of Intestinal-type alkaline phosphatase (Mus musculus, UniProt P24822) (P24822 whole entry): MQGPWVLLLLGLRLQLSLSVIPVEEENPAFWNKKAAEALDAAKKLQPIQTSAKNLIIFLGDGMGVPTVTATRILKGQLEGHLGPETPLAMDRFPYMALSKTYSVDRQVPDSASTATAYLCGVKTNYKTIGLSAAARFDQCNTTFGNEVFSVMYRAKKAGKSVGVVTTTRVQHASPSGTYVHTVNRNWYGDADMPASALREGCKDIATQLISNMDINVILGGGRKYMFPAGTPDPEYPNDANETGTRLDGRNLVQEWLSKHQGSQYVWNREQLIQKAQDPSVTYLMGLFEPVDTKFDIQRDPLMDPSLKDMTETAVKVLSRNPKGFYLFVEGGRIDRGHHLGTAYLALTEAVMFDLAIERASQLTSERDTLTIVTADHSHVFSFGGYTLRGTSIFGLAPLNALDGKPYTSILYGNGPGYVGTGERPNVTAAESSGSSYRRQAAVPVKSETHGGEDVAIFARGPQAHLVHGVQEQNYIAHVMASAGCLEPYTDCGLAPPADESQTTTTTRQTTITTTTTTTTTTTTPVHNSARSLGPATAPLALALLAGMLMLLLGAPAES
Sequence of Mu-type opioid receptor (P35372 whole entry): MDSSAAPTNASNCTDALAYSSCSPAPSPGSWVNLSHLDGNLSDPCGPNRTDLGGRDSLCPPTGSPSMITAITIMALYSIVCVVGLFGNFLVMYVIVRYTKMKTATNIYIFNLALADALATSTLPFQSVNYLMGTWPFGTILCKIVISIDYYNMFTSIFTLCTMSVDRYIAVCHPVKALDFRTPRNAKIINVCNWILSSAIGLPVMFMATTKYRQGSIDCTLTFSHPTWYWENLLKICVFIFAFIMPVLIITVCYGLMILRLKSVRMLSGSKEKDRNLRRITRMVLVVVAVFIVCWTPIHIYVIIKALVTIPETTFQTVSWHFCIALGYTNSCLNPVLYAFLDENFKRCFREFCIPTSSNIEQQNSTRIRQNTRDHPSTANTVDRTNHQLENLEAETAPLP

In the case of `C=CCN(CC=C)S(=O)(=O)c1ccc(NC(=S)NC(=O)c2ccc(-c3ccccc3)cc2)cc1`, the IC50 (Cannabinoid receptor 1) is reported as > 32 µM (inactive), the IC50 [1] is reported as > 100 µM (inactive) and the EC50 [2] is reported as < 500 nM (active). For the same compound, the IC50 [3] was > 100 µM (inactive), the EC50 (Cannabinoid receptor 2 [4]) was > 32 µM (inactive) and the IC50 (Cannabinoid receptor 2 [5]) was > 32 µM (inactive). For the same compound, the EC50 [6] was 200 nM (active).

With `Clc1ccc2nc(N3CCNCC3)nc(-c3ccccc3)c2c1` the EC50 [7] was 1.34 µM (active), the EC50 [8] was 5.96 µM (active) and the EC50 [9] was 4.64 µM (active). The EC50 [10] was > 49.8 µM (not active), the EC50 [11] was > 49.8 µM (inactive) and the EC50 [12] was 8.03 µM (active).

In the case of `CCC(C(=O)NCCCc1ccccc1)c1ccccc1` (configuration not stated), the AC50 [13] is reported as 3.73 µM (active).

For `N#Cc1ccc(CSc2nnc(-c3ccccn3)n2Cc2cccs2)cc1`, the EC50 (Mu-type opioid receptor) was > 32 µM (inactive), the EC50 [14] was > 64 µM (inactive) and the EC50 [15] was 4.64 µM (active). For the same compound, the EC50 [16] was 3.52 µM (active).

With `NS(=O)(=O)c1ccc(N/N=C2\C(=O)Nn3c2nc2c(c3=O)CCCC2)cc1` the IC50 [17] was 23.6 µM (active), the IC50 [18] was 9.28 µM (active) and the IC50 (Hexokinase HKDC1) was 13.2 µM (active). The IC50 [19] was 21.2 µM (active).
